These results are taken from patent US20220370440A1 (Lead Discovery Center GmbH, priority 2018, published 2022).

For one data set, the target named is T1, HER2 INS YVMA (Homo sapiens, UniProt P04626, INS775YVMA).
T1 construct: purchased DPF
The data set can be described thus: Lance Kinase Activity Assay, HER2 INS YVMA (Her2 Exon 20 INSYVMA Lance). The data set is classed as biochemical. The conditions noted are these: biochemical Lance assay. In outline:
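Kinase phosphorylates a ULight-labelled peptide substrate; Eu anti-phospho antibody gives TR-FRET (ex 340 nm, em 665/615 nm). Compounds in 1:3 serial dilution over 8 steps, reaction started with ATP, 1 h at room temperature, stopped with EDTA-containing detection mix for 1 h. IC50 from sigmoidal dose-response curves.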

The target of another data set is EGFR wt (Homo sapiens, UniProt P00533). The data set can be described thus: EGFR wt Lance assay. The data set is classed as biochemical. The procedure:
(§1) Inhibition is indicated as […] [nM] (“−”=not measured). Compounds having an activity designated as “A” provided an IC50≤100 nM; compounds having an activity designated as “B” provided an 100 nM<IC50≤500 nM; compounds having an activity designated as “C” provided an 500 nM<IC50≤1000 nM; compounds having an activity designated as “D” provided an 1000 nM<IC50≤100000 nM; and compounds having an activity designated as “E” provided an IC50>10000 nM.

The subject of the next data set is H1975. The data set can be described thus: H1975 CellTiter-Glo. The format is cell-based. The conditions noted are these: Homo sapiens, NCI-H1975; 72 h compound incubation; read-out: H1975 CTG IC50. The essentials:
(§2)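 Luminescence from cellular ATP serves as the viability signal after cells are treated with compound dilutions for 72 h at 37° C. IC50 is derived by curve fitting, with DMSO-treated and 10 μM Staurosporine-treated wells defining the assay window.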
(Cellular ATP, detected with luciferase, serves as a proxy for viable cell number.)

Another data set has as its system A431. The data set can be described thus: A431 CellTiter-Glo. The format is cell-based. The conditions noted are these: Homo sapiens, A-431; 72 h compound incubation; read-out: A431 CTG IC50. In outline:
as §2

Data set [1] addresses EGFR Exon 20 INSNPH Ba/F3 (Homo sapiens, UniProt P00533, DUP771-773, cells depend on it). As to the kind of experiment: EGFR Exon 20 INSNPH Ba/F3 CellTiter-Glo. Particulars: CellTiter-Glo, 72 h, read-out: EGFR Exon 20 INSNPH Ba/F3 CTG IC50. The format is cell-based. In outline:
(§3)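 IC50 values come from dose–response fits of CellTiter-Glo luminescence in Ba/F3 cells treated with compound for 72 h at 37 °C, 5% CO2. Vehicle (DMSO) and 10 μM staurosporine wells set the assay window, with Z′ ≥0.5 required.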

Data set [2] addresses Her2 Exon 20 INSYVMA Ba/F3 (Homo sapiens, UniProt P04626, DUP772-775, cells depend on it). As to the kind of experiment: Her2 Exon 20 INSYVMA Ba/F3 CellTiter-Glo. The conditions noted are these: CellTiter-Glo, 72 h, read-out: Her2 Exon 20 INSYVMA Ba/F3 CTG IC50. The format is cell-based. The essentials:
as §3

Another data set deals with EGFR T790ML858R (Homo sapiens, UniProt P00533, L858R/T790M). The data set can be described thus: EGFR T790ML858R Lance assay. The format is biochemical. As for the experimental part: as §1
Chain of EGFR T790ML858R (P00533 25-1210 T790M/L858R): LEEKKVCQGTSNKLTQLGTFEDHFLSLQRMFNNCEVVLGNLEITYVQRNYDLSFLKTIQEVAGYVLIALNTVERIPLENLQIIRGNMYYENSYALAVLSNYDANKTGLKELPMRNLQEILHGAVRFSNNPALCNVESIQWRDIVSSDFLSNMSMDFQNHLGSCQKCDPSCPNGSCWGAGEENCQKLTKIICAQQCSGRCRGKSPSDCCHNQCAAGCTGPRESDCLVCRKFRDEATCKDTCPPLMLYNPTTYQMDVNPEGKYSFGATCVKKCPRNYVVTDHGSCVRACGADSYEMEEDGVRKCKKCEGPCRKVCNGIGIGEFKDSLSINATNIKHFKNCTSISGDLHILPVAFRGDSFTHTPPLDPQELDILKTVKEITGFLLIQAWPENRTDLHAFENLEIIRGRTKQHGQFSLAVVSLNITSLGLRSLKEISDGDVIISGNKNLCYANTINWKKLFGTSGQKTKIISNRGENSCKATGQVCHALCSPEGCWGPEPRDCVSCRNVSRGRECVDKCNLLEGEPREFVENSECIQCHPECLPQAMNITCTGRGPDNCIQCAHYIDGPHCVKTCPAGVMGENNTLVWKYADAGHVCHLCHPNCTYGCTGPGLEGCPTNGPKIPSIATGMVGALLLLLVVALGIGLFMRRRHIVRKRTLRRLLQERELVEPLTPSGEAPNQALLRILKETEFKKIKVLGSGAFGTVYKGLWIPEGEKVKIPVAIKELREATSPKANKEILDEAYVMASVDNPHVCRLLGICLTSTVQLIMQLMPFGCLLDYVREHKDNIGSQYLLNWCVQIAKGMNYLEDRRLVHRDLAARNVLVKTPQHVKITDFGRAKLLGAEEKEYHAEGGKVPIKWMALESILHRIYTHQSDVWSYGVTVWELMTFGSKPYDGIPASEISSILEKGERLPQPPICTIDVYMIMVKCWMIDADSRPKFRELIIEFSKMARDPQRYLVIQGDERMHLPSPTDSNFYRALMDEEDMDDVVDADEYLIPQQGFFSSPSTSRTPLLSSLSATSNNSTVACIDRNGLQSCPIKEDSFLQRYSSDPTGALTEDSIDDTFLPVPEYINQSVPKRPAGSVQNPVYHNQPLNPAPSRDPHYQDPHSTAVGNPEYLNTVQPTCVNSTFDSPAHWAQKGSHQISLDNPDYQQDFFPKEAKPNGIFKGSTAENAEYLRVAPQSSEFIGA
Data set [3] in a line: Metabolic stability in mouse liver microsomes without cofactor NADPH. The data set is classed as in vitro ADME. Particulars: 3 μM test compound, mouse liver microsomes, without NADPH, 50 min, 37° C., LC-MS/MS. In outline:
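Test compound (3 μM) was incubated with mouse liver microsomes without NADPH at 37° C. Depletion was followed by LC-MS/MS over time up to 50 min.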
On the technique in general: Liver microsomes are a subcellular fraction often used to study metabolism.

Each structure is given as a SMILES string.

Chain of EGFR wt (P00533 25-1210): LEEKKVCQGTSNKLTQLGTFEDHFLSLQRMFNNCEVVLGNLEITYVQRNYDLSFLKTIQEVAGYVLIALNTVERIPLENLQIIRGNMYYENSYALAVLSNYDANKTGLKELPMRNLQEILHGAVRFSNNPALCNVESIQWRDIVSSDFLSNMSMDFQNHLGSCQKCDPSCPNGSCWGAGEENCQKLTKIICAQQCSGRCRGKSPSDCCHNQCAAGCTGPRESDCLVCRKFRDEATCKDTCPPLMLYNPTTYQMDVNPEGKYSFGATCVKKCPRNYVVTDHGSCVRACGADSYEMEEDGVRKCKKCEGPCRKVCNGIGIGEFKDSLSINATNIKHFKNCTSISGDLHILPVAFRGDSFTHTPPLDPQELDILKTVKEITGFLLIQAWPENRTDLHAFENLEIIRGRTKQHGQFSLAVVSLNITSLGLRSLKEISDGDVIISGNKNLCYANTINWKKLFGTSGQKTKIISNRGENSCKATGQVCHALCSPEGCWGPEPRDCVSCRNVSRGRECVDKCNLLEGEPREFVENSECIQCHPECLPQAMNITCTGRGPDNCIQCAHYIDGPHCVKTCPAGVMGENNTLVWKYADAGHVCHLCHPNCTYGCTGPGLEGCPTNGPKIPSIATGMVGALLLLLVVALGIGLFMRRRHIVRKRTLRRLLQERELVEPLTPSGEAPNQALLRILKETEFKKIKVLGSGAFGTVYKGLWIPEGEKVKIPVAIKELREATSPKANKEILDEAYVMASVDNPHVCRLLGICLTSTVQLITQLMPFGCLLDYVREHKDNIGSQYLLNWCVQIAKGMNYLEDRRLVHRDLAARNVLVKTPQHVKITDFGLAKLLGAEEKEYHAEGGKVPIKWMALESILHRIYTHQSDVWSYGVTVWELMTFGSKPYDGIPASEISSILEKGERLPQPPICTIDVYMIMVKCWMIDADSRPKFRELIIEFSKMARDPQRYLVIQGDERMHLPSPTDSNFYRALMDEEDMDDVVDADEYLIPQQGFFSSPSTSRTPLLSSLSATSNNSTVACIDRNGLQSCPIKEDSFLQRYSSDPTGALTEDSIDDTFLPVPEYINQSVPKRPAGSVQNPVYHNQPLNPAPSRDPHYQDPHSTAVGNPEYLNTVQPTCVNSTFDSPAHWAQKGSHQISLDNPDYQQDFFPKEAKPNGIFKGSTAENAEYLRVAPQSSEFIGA
Chain of Her2 Exon 20 INSYVMA Ba/F3 (P04626 with tags, fused parts or gaps DUP772-775): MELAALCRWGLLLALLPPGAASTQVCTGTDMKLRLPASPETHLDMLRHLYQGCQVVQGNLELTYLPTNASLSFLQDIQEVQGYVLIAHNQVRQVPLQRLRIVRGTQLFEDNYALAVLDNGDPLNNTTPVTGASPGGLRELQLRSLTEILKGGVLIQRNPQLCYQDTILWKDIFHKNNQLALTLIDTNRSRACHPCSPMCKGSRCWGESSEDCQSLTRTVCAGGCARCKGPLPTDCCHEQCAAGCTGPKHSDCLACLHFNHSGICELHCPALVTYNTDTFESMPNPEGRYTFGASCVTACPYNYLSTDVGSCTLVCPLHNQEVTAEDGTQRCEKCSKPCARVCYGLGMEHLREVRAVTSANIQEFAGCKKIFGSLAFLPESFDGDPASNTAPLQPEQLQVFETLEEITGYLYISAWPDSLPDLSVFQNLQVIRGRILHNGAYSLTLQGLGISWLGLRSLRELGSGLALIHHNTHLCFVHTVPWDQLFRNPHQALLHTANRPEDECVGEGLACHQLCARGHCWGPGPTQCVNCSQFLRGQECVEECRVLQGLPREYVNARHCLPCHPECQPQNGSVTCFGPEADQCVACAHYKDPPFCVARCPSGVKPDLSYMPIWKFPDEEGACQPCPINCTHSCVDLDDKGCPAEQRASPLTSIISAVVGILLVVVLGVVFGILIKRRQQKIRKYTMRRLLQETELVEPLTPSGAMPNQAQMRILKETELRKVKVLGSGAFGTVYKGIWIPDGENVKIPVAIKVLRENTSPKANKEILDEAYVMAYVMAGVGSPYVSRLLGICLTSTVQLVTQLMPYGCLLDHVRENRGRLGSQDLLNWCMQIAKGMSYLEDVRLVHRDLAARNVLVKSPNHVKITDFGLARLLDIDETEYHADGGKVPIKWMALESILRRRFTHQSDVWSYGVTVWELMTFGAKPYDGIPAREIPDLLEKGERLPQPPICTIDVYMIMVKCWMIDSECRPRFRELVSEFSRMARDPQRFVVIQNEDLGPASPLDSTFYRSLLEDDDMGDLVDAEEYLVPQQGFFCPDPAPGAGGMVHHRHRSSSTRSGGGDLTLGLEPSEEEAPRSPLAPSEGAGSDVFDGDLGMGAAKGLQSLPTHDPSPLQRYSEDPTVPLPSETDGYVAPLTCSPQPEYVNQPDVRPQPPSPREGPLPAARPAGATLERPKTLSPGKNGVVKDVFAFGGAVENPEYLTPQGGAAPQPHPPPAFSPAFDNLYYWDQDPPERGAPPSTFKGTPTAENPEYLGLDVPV
T1 sequence (P04626 with tags, fused parts or gaps INS775YVMA): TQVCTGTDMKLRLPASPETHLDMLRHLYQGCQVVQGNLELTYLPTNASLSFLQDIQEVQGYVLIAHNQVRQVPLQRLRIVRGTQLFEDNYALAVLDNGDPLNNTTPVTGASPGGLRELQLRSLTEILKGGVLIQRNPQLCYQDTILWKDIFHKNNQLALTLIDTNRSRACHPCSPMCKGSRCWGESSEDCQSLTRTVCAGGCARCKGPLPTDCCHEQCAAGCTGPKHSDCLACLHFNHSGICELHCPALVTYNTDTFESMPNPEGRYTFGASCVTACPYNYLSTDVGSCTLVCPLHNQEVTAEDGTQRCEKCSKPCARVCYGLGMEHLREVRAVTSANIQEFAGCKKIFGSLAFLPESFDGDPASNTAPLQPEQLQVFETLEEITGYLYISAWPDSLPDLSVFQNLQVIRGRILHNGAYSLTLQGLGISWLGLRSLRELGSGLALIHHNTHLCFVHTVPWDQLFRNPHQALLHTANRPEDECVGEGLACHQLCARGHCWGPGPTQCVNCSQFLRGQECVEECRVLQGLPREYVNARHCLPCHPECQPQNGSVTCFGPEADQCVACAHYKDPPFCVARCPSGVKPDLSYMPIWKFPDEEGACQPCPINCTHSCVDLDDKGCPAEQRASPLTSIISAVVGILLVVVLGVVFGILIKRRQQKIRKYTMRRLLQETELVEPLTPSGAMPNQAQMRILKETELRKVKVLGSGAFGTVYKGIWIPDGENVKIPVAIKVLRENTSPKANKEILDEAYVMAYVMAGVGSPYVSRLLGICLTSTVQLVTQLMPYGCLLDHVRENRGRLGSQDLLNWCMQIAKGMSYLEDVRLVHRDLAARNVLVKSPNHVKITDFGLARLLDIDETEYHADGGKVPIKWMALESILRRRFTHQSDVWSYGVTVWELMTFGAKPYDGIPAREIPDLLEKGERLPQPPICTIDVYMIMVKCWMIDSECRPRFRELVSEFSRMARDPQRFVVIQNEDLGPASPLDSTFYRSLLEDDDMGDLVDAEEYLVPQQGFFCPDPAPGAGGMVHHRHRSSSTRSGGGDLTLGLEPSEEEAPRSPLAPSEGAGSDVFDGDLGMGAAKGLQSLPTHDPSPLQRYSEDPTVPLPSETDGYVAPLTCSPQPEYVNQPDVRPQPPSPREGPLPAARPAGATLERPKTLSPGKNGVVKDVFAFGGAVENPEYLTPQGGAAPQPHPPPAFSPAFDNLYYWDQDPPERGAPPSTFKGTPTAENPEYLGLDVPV

In the case of `C=CC(=O)Nc1cc(-c2c(-c3ccnc(N4CCOCC4)c3)[nH]c3ncccc23)ccc1C` [Example 80, N-(2-methyl-5-(2-(2-morpholinopyridin-4-yl)-1H-pyrrolo[2,3-b]pyridin-3-yl)phenyl)acrylamide], the IC50 against HER2 INS YVMA was 500 to 1000 nM; at EGFR wt it was 100 to 500 nM; in the data set on H1975 it was 100 to 500 nM; with A431, 1000 to 100000 nM; at EGFR T790ML858R, no more than 100 nM. The GI50 in data set [1] and in data set [2] was 1000 to 10000 nM each time. Also, the “Stability in presence of mouse liver microsomes without cofactor NADPH [% remaining after 50 min]” value in data set [3] is given as greater than 99 % remaining after 50 min.

Regarding `C=CC(=O)Nc1cc(-c2c(-c3ccc(OCCN4CCCC4)cc3)[nH]c3ncc(C(=O)OC(C)C)cc23)ccc1C` [Example 158, isopropyl 3-(3-acrylamido-4-methylphenyl)-2-(4-(2-(pyrrolidin-1-yl)ethoxy)phenyl)-1H-pyrrolo[2,3-b]pyridine-5-carboxylate], the IC50 was no more than 100 nM on HER2 INS YVMA; no more than 100 nM at EGFR wt; 100 to 500 nM in the data set with H1975; 1000 to 100000 nM with A431; no more than 100 nM against EGFR T790ML858R. For the same compound, the GI50 in data set [1] and in data set [2] was 100 to 500 nM in each case. Also, the “Stability in presence of mouse liver microsomes without cofactor NADPH [% remaining after 50 min]” value in data set [3] is greater than 99 % remaining after 50 min.

`C=CC(=O)Nc1cc(-c2c(-c3ccc(N4CCN(C)CC4)cc3)[nH]c3ncc(C(=O)OC)cc23)ccc1C` [Example 134, Methyl 3-(3-acrylamido-4-methylphenyl)-2-(4-(4-methylpiperazin-1-yl)phenyl)-1H-pyrrolo[2,3-b]pyridine-5-carboxylate 2,2,2-trifluoroacetate]: the IC50 against HER2 INS YVMA was no more than 100 nM; on EGFR wt it was no more than 100 nM; in the data set on H1975, 100 to 500 nM; in the data set with A431, 1000 to 100000 nM; against EGFR T790ML858R, no more than 100 nM. The GI50 in data set [1] and in data set [2] was 100 to 500 nM in each case. Also, the “Stability in presence of mouse liver microsomes without cofactor NADPH [% remaining after 50 min]” value in data set [3] is recorded as greater than 99 % remaining after 50 min.

Consider `C=CC(=O)Nc1cc(-c2c(-c3cccc(CN(C)C)c3)[nH]c3ncc(C(=O)OC(C)C)cc23)ccc1C` [Example 187, isopropyl 3-(3-acrylamido-4-methylphenyl)-2-(3-((dimethylamino)methyl)phenyl)-1H-pyrrolo[2,3-b]pyridine-5-carboxylate], for which the IC50 against HER2 INS YVMA is no more than 100 nM; at EGFR wt, no more than 100 nM; with H1975 it was 100 to 500 nM; in the data set with A431, 1000 to 100000 nM; against EGFR T790ML858R, no more than 100 nM. The GI50 in data set [1] and in data set [2] was 100 to 500 nM each time. In addition, in data set [3], the “Stability in presence of mouse liver microsomes without cofactor NADPH [% remaining after 50 min]” value is recorded as greater than 99 % remaining after 50 min.

As for `C=CC(=O)Nc1cc(-c2c(-c3ccc(N(C)CCN(C)C)cc3)[nH]c3ncc(C(=O)OC(C)C)cc23)ccc1C` [Example 154, isopropyl 3-(3-acrylamido-4-methylphenyl)-2-(4-((2-(dimethylamino)ethyl)(methyl)amino)phenyl)-1H-pyrrolo[2,3-b]pyridine-5-carboxylate 2,2,2-trifluoroacetate], the IC50 against HER2 INS YVMA is no more than 100 nM; against EGFR wt, no more than 100 nM; in the data set on H1975 it was 100 to 500 nM; in the data set with A431, 1000 to 100000 nM; against EGFR T790ML858R, no more than 100 nM. The GI50 in data set [1] and in data set [2] was 100 to 500 nM in each case. In data set [3], the “Stability in presence of mouse liver microsomes without cofactor NADPH [% remaining after 50 min]” value is given as greater than 99 % remaining after 50 min.

Regarding `C=CC(=O)Nc1cc(-c2c(-c3ccc(N4CCN(C)CC4)cc3)[nH]c3ncc(C(=O)NC(C)C)cc23)ccc1C` [Example 119, 3-(3-acrylamido-4-methylphenyl)-N-isopropyl-2-(4-(4-methylpiperazin-1-yl)phenyl)-1H-pyrrolo[2,3-b]pyridine-5-carboxamide], the IC50 is no more than 100 nM against HER2 INS YVMA; no more than 100 nM on EGFR wt; 500 to 1000 nM in the data set on H1975; 500 to 1000 nM in the data set on A431; no more than 100 nM on EGFR T790ML858R. Besides, the GI50 in data set [1] and in data set [2] was 100 to 500 nM throughout. Besides, in data set [3], the “Stability in presence of mouse liver microsomes without cofactor NADPH [% remaining after 50 min]” value was greater than 99 % remaining after 50 min.

Usually IC50 stands for the point on the concentration scale where inhibition reaches its midpoint.
